Laboratory results reported in ChEMBL document CHEMBL4507302, “Data for DCP probe TP-020” (2021).

What was measured:
[1] = test system: Tyrosine-protein kinase ABL1 (Homo sapiens), P00519 [Y253F]; details: Compound concentration 1000.0 nM
[2] = target: Mitogen-activated protein kinase kinase kinase 13 (Homo sapiens) (UniProt O43283); details: Compound concentration 1000.0 nM
[3] = target: Serine/threonine-protein kinase pim-2 (Homo sapiens) (UniProt Q9P1W9); details: Compound concentration 1000.0 nM
[4] = target: Mitogen-activated protein kinase kinase kinase 12 (Homo sapiens) (UniProt Q12852); details: Compound concentration 1000.0 nM
Chain of Mitogen-activated protein kinase kinase kinase 12 (Homo sapiens) (Q12852 whole entry): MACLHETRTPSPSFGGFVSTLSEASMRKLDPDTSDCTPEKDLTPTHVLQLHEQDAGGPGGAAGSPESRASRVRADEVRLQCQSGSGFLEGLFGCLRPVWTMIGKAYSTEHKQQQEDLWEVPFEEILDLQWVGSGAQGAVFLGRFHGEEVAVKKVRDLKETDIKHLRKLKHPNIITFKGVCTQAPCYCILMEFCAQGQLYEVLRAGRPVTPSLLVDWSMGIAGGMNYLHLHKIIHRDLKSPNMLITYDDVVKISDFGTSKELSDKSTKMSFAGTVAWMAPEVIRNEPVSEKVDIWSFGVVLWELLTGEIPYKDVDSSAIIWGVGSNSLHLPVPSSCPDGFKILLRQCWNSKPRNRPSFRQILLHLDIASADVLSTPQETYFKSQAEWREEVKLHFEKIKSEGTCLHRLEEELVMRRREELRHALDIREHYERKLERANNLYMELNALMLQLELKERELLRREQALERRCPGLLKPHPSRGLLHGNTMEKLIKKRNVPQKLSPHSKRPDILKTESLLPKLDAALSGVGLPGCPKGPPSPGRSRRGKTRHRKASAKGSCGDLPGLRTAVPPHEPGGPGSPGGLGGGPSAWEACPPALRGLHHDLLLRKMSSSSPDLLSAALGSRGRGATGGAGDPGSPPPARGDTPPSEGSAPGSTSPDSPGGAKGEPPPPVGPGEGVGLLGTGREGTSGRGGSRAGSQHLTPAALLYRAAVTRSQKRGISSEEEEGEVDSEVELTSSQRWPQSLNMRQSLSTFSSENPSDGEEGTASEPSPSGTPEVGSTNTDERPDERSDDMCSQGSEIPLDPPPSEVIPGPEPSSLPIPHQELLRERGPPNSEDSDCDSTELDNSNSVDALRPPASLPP

[5] = target: Activin receptor type-1B (Homo sapiens) (UniProt P36896); details: Compound concentration 1000.0 nM
Chain of Activin receptor type-1B (Homo sapiens) (P36896 whole entry): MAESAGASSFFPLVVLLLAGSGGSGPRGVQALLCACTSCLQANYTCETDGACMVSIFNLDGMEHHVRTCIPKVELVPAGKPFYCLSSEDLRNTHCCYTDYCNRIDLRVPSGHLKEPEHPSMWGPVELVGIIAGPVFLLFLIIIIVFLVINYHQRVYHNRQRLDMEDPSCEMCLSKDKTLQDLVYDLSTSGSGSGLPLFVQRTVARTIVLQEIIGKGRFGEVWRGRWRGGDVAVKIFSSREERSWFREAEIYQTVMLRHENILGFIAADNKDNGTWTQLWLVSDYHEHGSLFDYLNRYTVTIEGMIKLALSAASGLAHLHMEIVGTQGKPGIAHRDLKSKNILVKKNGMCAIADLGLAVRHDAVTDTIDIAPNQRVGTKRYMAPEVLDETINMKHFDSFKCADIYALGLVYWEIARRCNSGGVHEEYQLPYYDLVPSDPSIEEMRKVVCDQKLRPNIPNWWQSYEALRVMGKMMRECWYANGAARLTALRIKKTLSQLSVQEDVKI

[6] = target: Dual specificity mitogen-activated protein kinase kinase 3 (Homo sapiens) (UniProt P46734); details: Compound concentration 1000.0 nM
[7] = test system: Epidermal growth factor receptor (Homo sapiens), P00533 [T790M]; details: Compound concentration 1000.0 nM
[8] = target: RAC-gamma serine/threonine-protein kinase (Homo sapiens) (UniProt Q9Y243); details: Compound concentration 1000.0 nM
Chain of RAC-gamma serine/threonine-protein kinase (Homo sapiens) (Q9Y243 whole entry): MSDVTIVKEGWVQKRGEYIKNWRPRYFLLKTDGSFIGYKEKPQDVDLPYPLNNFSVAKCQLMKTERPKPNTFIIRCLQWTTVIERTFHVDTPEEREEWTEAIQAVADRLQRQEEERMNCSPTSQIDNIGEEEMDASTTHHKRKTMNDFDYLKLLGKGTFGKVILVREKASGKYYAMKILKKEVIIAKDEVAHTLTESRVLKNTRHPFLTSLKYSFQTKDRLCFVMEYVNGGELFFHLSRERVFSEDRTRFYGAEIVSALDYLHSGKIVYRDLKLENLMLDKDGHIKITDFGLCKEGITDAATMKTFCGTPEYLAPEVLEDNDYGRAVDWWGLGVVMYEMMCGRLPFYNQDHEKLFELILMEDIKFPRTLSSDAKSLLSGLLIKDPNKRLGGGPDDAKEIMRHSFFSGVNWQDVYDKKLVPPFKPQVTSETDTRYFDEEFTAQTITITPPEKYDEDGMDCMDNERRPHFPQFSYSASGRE

[9] = target: Serine/threonine-protein kinase ULK1 (Homo sapiens) (UniProt O75385); details: Compound concentration 1000.0 nM
[10] = target: Calcium/calmodulin-dependent protein kinase type IV (Homo sapiens) (UniProt Q16566); details: Compound concentration 1000.0 nM
[11] = target: Mitogen-activated protein kinase kinase kinase kinase 2 (Homo sapiens) (UniProt Q12851); details: Compound concentration 1000.0 nM
[12] = target: Mitogen-activated protein kinase 13 (Homo sapiens) (UniProt O15264); details: Compound concentration 1000.0 nM
[13] = target: Receptor-interacting serine/threonine-protein kinase 4 (Homo sapiens) (UniProt P57078); details: Compound concentration 1000.0 nM
Chain of Receptor-interacting serine/threonine-protein kinase 4 (Homo sapiens) (P57078 whole entry): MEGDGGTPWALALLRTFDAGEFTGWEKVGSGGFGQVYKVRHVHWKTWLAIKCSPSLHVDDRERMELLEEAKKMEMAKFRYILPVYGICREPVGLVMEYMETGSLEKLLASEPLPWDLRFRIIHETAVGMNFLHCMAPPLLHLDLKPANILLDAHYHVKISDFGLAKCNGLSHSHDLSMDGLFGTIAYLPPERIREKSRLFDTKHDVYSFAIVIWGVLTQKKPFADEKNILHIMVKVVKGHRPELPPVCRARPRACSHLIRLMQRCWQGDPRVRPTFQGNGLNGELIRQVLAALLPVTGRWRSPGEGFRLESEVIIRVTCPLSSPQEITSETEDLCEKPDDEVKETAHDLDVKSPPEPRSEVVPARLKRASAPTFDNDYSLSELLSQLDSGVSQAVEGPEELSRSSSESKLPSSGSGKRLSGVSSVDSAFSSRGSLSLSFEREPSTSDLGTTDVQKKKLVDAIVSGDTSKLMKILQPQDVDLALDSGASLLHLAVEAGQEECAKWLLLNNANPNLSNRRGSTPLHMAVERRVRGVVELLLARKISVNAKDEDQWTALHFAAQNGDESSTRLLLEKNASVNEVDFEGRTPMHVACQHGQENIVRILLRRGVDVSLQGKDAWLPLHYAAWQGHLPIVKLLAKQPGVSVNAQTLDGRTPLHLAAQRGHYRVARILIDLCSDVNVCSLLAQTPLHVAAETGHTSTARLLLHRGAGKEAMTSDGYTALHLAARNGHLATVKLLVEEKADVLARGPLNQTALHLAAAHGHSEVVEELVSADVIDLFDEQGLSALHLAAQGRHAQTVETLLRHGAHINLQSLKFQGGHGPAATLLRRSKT

[14] = target: Serine/threonine-protein kinase 32C (Homo sapiens) (UniProt Q86UX6); details: Compound concentration 1000.0 nM
[15] = target: Serine/threonine-protein kinase 38 (Homo sapiens) (UniProt Q15208); details: Compound concentration 1000.0 nM
[16] = target: Bone morphogenetic protein receptor type-1B (Homo sapiens) (UniProt O00238); details: Compound concentration 1000.0 nM
[17] = target: Muscarinic acetylcholine receptor M4 (Homo sapiens) (UniProt P08173); details: Compound concentration 10.0 uM
[18] = target: Serine/threonine-protein kinase D1 (Homo sapiens) (UniProt Q15139); details: Compound concentration 1000.0 nM
[19] = target: Ribosomal protein S6 kinase alpha-1 (Homo sapiens) (UniProt Q15418); details: Compound concentration 1000.0 nM
[20] = target: Tyrosine-protein kinase JAK3 (Homo sapiens) (UniProt P52333); details: Compound concentration 1000.0 nM
[21] = target: STE20/SPS1-related proline-alanine-rich protein kinase (Homo sapiens) (UniProt Q9UEW8); details: Compound concentration 1000.0 nM
[22] = target: Cyclin-dependent kinase 2 homolog (Plasmodium falciparum (isolate 3D7)) (UniProt P61075); details: Compound concentration 1000.0 nM
[23] = target: Cyclin-G-associated kinase (Homo sapiens) (UniProt O14976); details: Compound concentration 1000.0 nM
[24] = target: Serine/threonine-protein kinase Nek4 (Homo sapiens) (UniProt P51957); details: Compound concentration 1000.0 nM
[25] = test system: Receptor-type tyrosine-protein kinase FLT3 (Homo sapiens), P36888 [N841I]; details: Compound concentration 1000.0 nM
[26] = target: Serine/threonine-protein kinase Nek11 (Homo sapiens) (UniProt Q8NG66); details: Compound concentration 1000.0 nM
[27] = target: Dual specificity tyrosine-phosphorylation-regulated kinase 2 (Homo sapiens) (UniProt Q92630); details: Compound concentration 1000.0 nM
Chain of Dual specificity tyrosine-phosphorylation-regulated kinase 2 (Homo sapiens) (Q92630 whole entry, canonical isoform): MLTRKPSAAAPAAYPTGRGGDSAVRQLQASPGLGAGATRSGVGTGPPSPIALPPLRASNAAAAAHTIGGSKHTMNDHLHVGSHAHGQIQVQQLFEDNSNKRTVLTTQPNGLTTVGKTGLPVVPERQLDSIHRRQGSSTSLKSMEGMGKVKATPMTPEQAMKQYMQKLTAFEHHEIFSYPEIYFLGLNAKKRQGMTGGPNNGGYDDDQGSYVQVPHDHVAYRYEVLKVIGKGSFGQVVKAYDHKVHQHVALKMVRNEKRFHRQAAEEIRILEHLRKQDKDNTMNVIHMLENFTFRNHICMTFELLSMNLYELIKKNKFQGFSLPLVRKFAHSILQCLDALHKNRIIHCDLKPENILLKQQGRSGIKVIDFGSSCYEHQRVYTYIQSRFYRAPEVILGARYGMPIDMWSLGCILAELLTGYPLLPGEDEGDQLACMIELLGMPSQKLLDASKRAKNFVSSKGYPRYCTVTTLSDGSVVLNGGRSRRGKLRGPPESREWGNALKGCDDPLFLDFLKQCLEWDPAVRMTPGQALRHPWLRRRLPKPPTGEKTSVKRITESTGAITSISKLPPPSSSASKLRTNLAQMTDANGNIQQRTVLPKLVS

[28] = test system: Phosphatidylinositol 4,5-bisphosphate 3-kinase catalytic subunit alpha isoform (Homo sapiens), P42336 [H1047L]; details: Compound concentration 1000.0 nM
[29] = target: Tyrosine-protein kinase FRK (Homo sapiens) (UniProt P42685); details: Compound concentration 1000.0 nM
[30] = target: Calcium/calmodulin-dependent protein kinase type 1B (Homo sapiens) (UniProt Q6P2M8); details: Compound concentration 1000.0 nM
[31] = target: Bone morphogenetic protein receptor type-2 (Homo sapiens) (UniProt Q13873); details: Compound concentration 1000.0 nM
[32] = target: Protein-tyrosine kinase 2-beta (Homo sapiens) (UniProt Q14289); details: Compound concentration 1000.0 nM
[33] = target: Serine/threonine-protein kinase N2 (Homo sapiens) (UniProt Q16513); details: Compound concentration 1000.0 nM
[34] = target: GABA-A receptor; anion channel (Rattus norvegicus) (UniProt O09028+P15431+P18506+P18508+P19969+P20236+P23574+P23576+P28471+P28473+P30191+P62813+P63079+P63138+Q91ZM7+Q9ES14); details: Compound concentration 10.0 uM
[35] = target: Protein kinase C eta type (Homo sapiens) (UniProt P24723); details: Compound concentration 1000.0 nM
Chain of Protein kinase C eta type (Homo sapiens) (P24723 whole entry): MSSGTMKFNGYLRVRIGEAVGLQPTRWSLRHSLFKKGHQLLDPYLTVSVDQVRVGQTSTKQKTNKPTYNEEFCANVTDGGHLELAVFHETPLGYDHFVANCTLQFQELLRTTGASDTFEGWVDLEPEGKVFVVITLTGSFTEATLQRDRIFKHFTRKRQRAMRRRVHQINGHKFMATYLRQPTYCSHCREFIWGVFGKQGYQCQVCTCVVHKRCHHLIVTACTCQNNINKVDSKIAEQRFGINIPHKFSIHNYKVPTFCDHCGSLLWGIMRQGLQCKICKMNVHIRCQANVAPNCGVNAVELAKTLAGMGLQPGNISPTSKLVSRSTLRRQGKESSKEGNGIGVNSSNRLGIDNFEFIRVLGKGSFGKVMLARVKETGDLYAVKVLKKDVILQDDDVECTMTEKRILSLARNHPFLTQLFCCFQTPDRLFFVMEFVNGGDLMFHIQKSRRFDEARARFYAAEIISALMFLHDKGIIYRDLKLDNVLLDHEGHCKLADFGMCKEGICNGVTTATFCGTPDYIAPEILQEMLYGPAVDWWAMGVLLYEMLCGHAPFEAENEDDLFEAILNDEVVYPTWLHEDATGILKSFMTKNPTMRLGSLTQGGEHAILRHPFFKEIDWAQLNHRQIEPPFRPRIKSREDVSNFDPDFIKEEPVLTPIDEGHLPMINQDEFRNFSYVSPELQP

[36] = target: G protein-coupled receptor kinase 3 (Homo sapiens) (UniProt P35626); details: Compound concentration 1000.0 nM
[37] = target: Dual specificity protein kinase CLK1 (Homo sapiens) (UniProt P49759); details: Compound concentration 1000.0 nM
[38] = test system: Receptor-type tyrosine-protein kinase FLT3 (Homo sapiens), P36888 [D835V]; details: Compound concentration 1000.0 nM
[39] = target: Myosin light chain kinase (Homo sapiens) (UniProt Q32MK0); details: Compound concentration 1000.0 nM
[40] = target: Proto-oncogene tyrosine-protein kinase Src (Homo sapiens) (UniProt P12931); details: Compound concentration 1000.0 nM
[41] = target: 1-phosphatidylinositol 3-phosphate 5-kinase (Homo sapiens) (UniProt Q9Y2I7); details: Compound concentration 1000.0 nM
[42] = target: Tyrosine-protein kinase Fer (Homo sapiens) (UniProt P16591); details: Compound concentration 1000.0 nM
[43] = test system: Mast/stem cell growth factor receptor Kit (Homo sapiens), P10721 [L576P]; details: Compound concentration 1000.0 nM

Chain of Mitogen-activated protein kinase kinase kinase 13 (Homo sapiens) (O43283 whole entry): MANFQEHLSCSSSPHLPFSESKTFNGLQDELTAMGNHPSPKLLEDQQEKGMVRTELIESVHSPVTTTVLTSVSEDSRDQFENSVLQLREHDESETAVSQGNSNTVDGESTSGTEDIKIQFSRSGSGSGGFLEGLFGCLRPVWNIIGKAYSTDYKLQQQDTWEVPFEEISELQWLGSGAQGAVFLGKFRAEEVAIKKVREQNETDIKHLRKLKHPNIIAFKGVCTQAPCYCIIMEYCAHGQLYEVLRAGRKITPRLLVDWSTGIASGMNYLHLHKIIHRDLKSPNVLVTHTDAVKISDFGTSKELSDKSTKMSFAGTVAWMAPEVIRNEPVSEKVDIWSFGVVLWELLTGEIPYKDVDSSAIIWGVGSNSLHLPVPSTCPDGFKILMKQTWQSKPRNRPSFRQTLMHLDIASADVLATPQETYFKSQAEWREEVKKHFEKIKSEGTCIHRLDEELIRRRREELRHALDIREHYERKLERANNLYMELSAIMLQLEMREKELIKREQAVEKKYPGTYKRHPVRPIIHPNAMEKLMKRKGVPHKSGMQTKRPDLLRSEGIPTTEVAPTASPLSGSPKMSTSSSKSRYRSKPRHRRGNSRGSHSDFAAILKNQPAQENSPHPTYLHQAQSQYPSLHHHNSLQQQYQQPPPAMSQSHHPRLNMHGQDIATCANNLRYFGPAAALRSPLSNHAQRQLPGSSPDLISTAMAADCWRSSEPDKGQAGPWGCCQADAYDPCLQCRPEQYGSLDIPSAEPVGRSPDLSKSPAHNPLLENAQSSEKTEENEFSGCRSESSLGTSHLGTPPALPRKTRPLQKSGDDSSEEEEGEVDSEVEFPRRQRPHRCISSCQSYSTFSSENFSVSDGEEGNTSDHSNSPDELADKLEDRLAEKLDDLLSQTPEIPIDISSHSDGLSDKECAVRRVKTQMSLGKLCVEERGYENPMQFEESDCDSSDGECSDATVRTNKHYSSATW

Cn1nc(C(F)(F)F)cc1-c1cnc(N2CCc3cc(S(=O)(=O)Nc4c(F)cc(Cl)cc4F)cc(N4CCCC4=O)c32)nc1 [TP-020]
inactive: residual activity [1] 95% | residual activity [2] 79% | residual activity [3] 100% | residual activity [4] 72% | residual activity [5] 96% | residual activity [6] 82% | residual activity [7] 94% | residual activity [8] 84% | residual activity [9] 79% | residual activity [10] 100% | residual activity [11] 95% | residual activity [12] 100% | residual activity [13] 67% | residual activity [14] 100% | residual activity [15] 97% | residual activity [16] 83% | inhibition [17] 41.2% | residual activity [18] 80% | residual activity [19] 99% | residual activity [20] 81% | residual activity [21] 91% | residual activity [22] 73% | residual activity [23] 94% | residual activity [24] 72% | residual activity [25] 94% | residual activity [26] 78% | residual activity [27] 87% | residual activity [28] 94% | residual activity [29] 83% | residual activity [30] 80% | residual activity [31] 77% | residual activity [32] 100% | residual activity [33] 82% | inhibition [34] 7.89% | residual activity [35] 90% | residual activity [36] 82% | residual activity [37] 87% | residual activity [38] 91% | residual activity [39] 84% | residual activity [40] 100% | residual activity [41] 88% | residual activity [42] 100% | residual activity [43] 93%

Nc1cnc(N2CCc3cc(S(=O)(=O)Nc4c(F)cc(Cl)cc4F)cc(N4CCCC4=O)c32)nc1
inactive: residual activity [1] 94% | residual activity [2] 100% | residual activity [3] 85% | residual activity [4] 100% | residual activity [5] 96% | residual activity [6] 100% | residual activity [7] 88% | residual activity [8] 94% | residual activity [9] 95% | residual activity [10] 96% | residual activity [11] 90% | residual activity [12] 100% | residual activity [13] 76% | residual activity [14] 100% | residual activity [15] 99% | residual activity [16] 100% | inhibition [17] 9.99% | residual activity [18] 83% | residual activity [19] 93% | residual activity [20] 100% | residual activity [21] 100% | residual activity [22] 100% | residual activity [23] 100% | residual activity [24] 97% | residual activity [25] 89% | residual activity [26] 100% | residual activity [27] 89% | residual activity [28] 60% | residual activity [29] 62% | residual activity [30] 67% | residual activity [31] 100% | residual activity [32] 100% | residual activity [33] 100% | inhibition [34] 20.5% | residual activity [35] 80% | residual activity [36] 100% | residual activity [37] 85% | residual activity [38] 100% | residual activity [39] 100% | residual activity [40] 99% | residual activity [41] 100% | residual activity [42] 100% | residual activity [43] 83%
